Measurements taken from patent US20250221411A1, “SUBSTITUTED BENZAMIDES AS HERBICIDES” (SYNGENTA CROP PROTECTION AG, priority 2021, published 2025).

Key:
Assay type in all cases: in vivo
Conditions in all cases: 250 g/h, evaluated after 13 days, five-point scale
[1] = tested on: Amaranthus retoflexus (AMARE); assay: Pre-emergence herbicidal glasshouse test, AMARE
Procedure: (§1) Seeds of a variety of test species are sown in standard soil in pots Amaranthus retoflexus (AMARE), Abutilon theophrasti (ABUTH), Setaria faberi (SETFA), Echinochloa crus-galli (ECHCG), Ipomoea hederacea (IPOHE)). After cultivation for one day (pre-emergence) or after 8 days cultivation (post-emergence) under controlled conditions in a glasshouse (at 24/16° C., day/night; 14 hours light; 65% humidity), the plants are sprayed with an aqueous spray solution derived from the formulation of the technical active ingredient in acetone/water (50:50) solution containing 0.5% Tween 20 (polyoxyethelyene sorbitan monolaurate, CAS RN 9005-64-5). Compounds are applied at 250 g/h unless otherwise indicated. The test plants are then grown in a glasshouse under controlled conditions in a glasshouse (at 24/16° C., day/night; 14 hours light; 65% humidity) and watered twice daily. After 13 days for pre and post-emergence, the test is evaluated for the percentage damage caused to the plant. The biological activities are shown in the following table on a five-point scale (5=80-100%; 4=60-79%; 3=40-59%; 2=20-39%; 1=0-19%).

[2] = tested on: Setaria faberi (SETFA); assay: Post-emergence herbicidal glasshouse test, SETFA
Procedure: as §1

[3] = tested on: Echinochloa crus-galli (ECHCG); assay: Post-emergence herbicidal glasshouse test, ECHCG
Procedure: as §1

[4] = tested on: Abutilon theophrasti (ABUTH); assay: Pre-emergence herbicidal glasshouse test, ABUTH
Procedure: as §1

[5] = tested on: Setaria faberi (SETFA); assay: Pre-emergence herbicidal glasshouse test, SETFA
Procedure: as §1

[6] = tested on: Amaranthus retoflexus (AMARE); assay: Post-emergence herbicidal glasshouse test, AMARE
Procedure: as §1

[7] = tested on: Echinochloa crus-galli (ECHCG); assay: Pre-emergence herbicidal glasshouse test, ECHCG
Procedure: as §1

[8] = tested on: Ipomoea hederacea (IPOHE); assay: Post-emergence herbicidal glasshouse test, IPOHE
Procedure: as §1

[9] = tested on: Abutilon theophrasti (ABUTH); assay: Post-emergence herbicidal glasshouse test, ABUTH
Procedure: as §1

[10] = tested on: Ipomoea hederacea (IPOHE); assay: Pre-emergence herbicidal glasshouse test, IPOHE
Procedure: as §1

Compound	percentage damage caused to the plant, PRE Application AMARE [1]	percentage damage caused to the plant, POST Application SETFA [2]	percentage damage caused to the plant, POST Application ECHCG [3]	percentage damage caused to the plant, PRE Application ABUTH [4]	percentage damage caused to the plant, PRE Application SETFA [5]	percentage damage caused to the plant, POST Application AMARE [6]	percentage damage caused to the plant, PRE Application ECHCG [7]	percentage damage caused to the plant, POST Application IPOHE [8]	percentage damage caused to the plant, POST Application ABUTH [9]	percentage damage caused to the plant, PRE Application IPOHE [10]
CCC(=O)N(C)Cc1c(OC(F)(F)F)ccc(C(=O)Nc2nnnn2C)c1Cl [Compound 1.001]	5 (5=80-100%)	5 (5=80-100%)	5 (5=80-100%)	5 (5=80-100%)	3 (3=40-59%)	5 (5=80-100%)	4 (4=60-79%)	5 (5=80-100%)	5 (5=80-100%)	1 (1=0-19%)
CN(Cc1c(OC(F)(F)F)ccc(C(=O)Nc2nnnn2C)c1Cl)C(=O)C1CC1 [Compound 1.002]	1 (1=0-19%)	5 (5=80-100%)	5 (5=80-100%)	3 (3=40-59%)	2 (2=20-39%)	5 (5=80-100%)	2 (2=20-39%)	5 (5=80-100%)	5 (5=80-100%)	1 (1=0-19%)
CCC(=O)NCc1c(OC(F)(F)F)ccc(C(=O)Nc2nnnn2C)c1Cl [Compound 1.003, 2-chloro-N-(1-methyltetrazol-5-yl)-3-[(propanoylamino)methyl]-4-(trifluoromethoxy)benzamide]	5 (5=80-100%)	5 (5=80-100%)	5 (5=80-100%)	5 (5=80-100%)	4 (4=60-79%)	5 (5=80-100%)	1 (1=0-19%)	5 (5=80-100%)		3 (3=40-59%)
CCCC(=O)NCc1c(OC(F)(F)F)ccc(C(=O)Nc2nnnn2CC)c1Cl [Compound 1.005]	5 (5=80-100%)	5 (5=80-100%)		5 (5=80-100%)	1 (1=0-19%)	5 (5=80-100%)	1 (1=0-19%)	5 (5=80-100%)	5 (5=80-100%)	1 (1=0-19%)
Cn1nnnc1NC(=O)c1ccc(OC(F)(F)F)c(CNC(=O)c2c(F)cccc2F)c1Cl [Compound 1.008]	5 (5=80-100%)	4 (4=60-79%)	5 (5=80-100%)	5 (5=80-100%)	2 (2=20-39%)		2 (2=20-39%)	5 (5=80-100%)	5 (5=80-100%)	1 (1=0-19%)
CC(=O)NCc1c(OC(F)(F)F)ccc(C(=O)Nc2nnnn2C)c1Cl [Compound 1.009]	5 (5=80-100%)	5 (5=80-100%)	5 (5=80-100%)	5 (5=80-100%)	5 (5=80-100%)	5 (5=80-100%)	5 (5=80-100%)	5 (5=80-100%)	5 (5=80-100%)	4 (4=60-79%)
Cn1nnnc1NC(=O)c1ccc(OC(F)(F)F)c(CNC(=O)c2ccc(F)cc2F)c1Cl [Compound 1.010]	5 (5=80-100%)	5 (5=80-100%)	5 (5=80-100%)	5 (5=80-100%)	1 (1=0-19%)	5 (5=80-100%)	1 (1=0-19%)	5 (5=80-100%)	5 (5=80-100%)	1 (1=0-19%)
Cn1nnnc1NC(=O)c1ccc(OC(F)(F)F)c(CNC(=O)c2ccc(Cl)cc2)c1Cl [Compound 1.011]	5 (5=80-100%)	2 (2=20-39%)	5 (5=80-100%)	5 (5=80-100%)	1 (1=0-19%)	5 (5=80-100%)	1 (1=0-19%)	5 (5=80-100%)	5 (5=80-100%)	1 (1=0-19%)
